# Experimental data taken from US20030161862A1, “Bacterial growth regulators or inhibitors with the use of 1,5-d-anhydrofructose” (priority 2000, published 2003).
# Legend:
# Format in all cases: cell-based
# [1] = system: Enterobactor cloacae JCM 1232; experiment: growth suppression/inhibition on agar media, colonies observed visually; details: agar medium pH 7.0, 37° C. one night; BHA 0.5%, BHT 0.5%, 1,5-D-anhydrofructose 1%
# [2] = system: Streptococcus eqinus ATCC 9812; experiment: as above; details: agar medium pH 7.0, 37° C. one night; BHA 0.5%, BHT 0.5%, 1,5-D-anhydrofructose 1%
# [3] = system: gram-positive bacteria; experiment: minimum growth inhibitory concentration / growth inhibition in agar media; details: agar media, without any antioxidant or chelating agent
# Protocol: When a variety of bacteria are cultured in agar media in the presence of 1,5-D-anhydrofructose without any of an antioxidant or a chelating agent, a minimum growth inhibitory concentration of 1,5-D-anhydrofructose is 3.0 to 5.0% for gram-negative bacteria and 1.0 to 3.0% for gram-positive bacteria. Under the circumstances, influences on growth of a variety of bacteria in the presence of 1,5-D-anhydrofructose with or without sodium ascorbate which is a typical antioxidant to be used in food and beverages were examined.
# (§1) After the bacterial strains were suspended in physiological salt solutions, they were inoculated into agar media (each containing 0.25% of yeast extract, 0.5% of polypeptone, […]) with platinum loops and then cultured at 37° C. until colonies were formed. Thereafter, the bacteria were inoculated, with sterilized toothpicks, from the colonies into agar media of the above composition each of which contained 1.0% of sodium ascorbate and 1.0% of 1,5-D-anhydrofructose, and into agar media of the above composition each of which contained 1.0% of 1,5-D-anhydrofructose and no sodium ascorbate. For controls, culture media of the same composition each of which contained neither sodium ascorbate nor 1,5-D-anhydrofructose and culture media of the same composition each of which contained 1.0% of sodium ascorbate and no 1,5-D-anhydrofructose were used. Abilities of sodium ascorbate and 1,5-D-anhydrofructose to suppress/inhibit growth of the bacteria were evaluated by visually observing the colonies formed after the bacteria were cultured at 37° C. for one night.
# (§2) The substances were used at concentrations shown in the legend of Table 4.
# [4] = system: Bacillus subtillis IFO 3009; experiment: growth suppression/inhibition on agar media, colonies observed visually; details: agar medium pH 7.0, 37° C. one night; BHA 0.5%, BHT 0.5%, 1,5-D-anhydrofructose 1%
# [5] = system: Enterobactor cloacae JCM 1232; experiment: as above; details: agar medium pH 6.5, 37° C. one night
# Source text: (§3) Under the circumstances, influences on growth of a variety of bacteria in the presence of 1,5-D-anhydrofructose with or without sodium ascorbate which is a typical antioxidant to be used in food and beverages were examined.
# (§4) After the bacterial strains were suspended in physiological salt solutions, they were inoculated into agar media (each containing 0.25% of yeast extract, 0.5% of polypeptone, 1.0% of glucose and 1.5% of soft agar and having a pH of 6.5) with platinum loops and then cultured at 37° C. until colonies were formed. Thereafter, the bacteria were inoculated, with sterilized toothpicks, from the colonies into agar media of the above composition each of which contained 1.0% of sodium ascorbate and 1.0% of 1,5-D-anhydrofructose, and into agar media of the above composition each of which contained 1.0% of 1,5-D-anhydrofructose and no sodium ascorbate. For controls, culture media of the same composition each of which contained neither sodium ascorbate nor 1,5-D-anhydrofructose and culture media of the same composition each of which contained 1.0% of sodium ascorbate and no 1,5-D-anhydrofructose were used. Abilities of sodium ascorbate and 1,5-D-anhydrofructose to suppress/inhibit growth of the bacteria were evaluated by visually observing the colonies formed after the bacteria were cultured at 37° C. for one night.
# as §2
# (§5) Those cultured in the absence of the chelating agents, 1,5-D-anhydrofructose, sodium ascorbate and sodium erythorbate were taken as controls. As for an agar medium, a method for inoculating the bacteria, conditions for culturing the bacteria, and a method for evaluating a growth suppressing/inhibiting ability, they are the same as those used in the tests whose results are shown in Tables 2 and 3.
# [6] = system: Streptococcus eqinus ATCC 9812; experiment: as above; details: agar medium pH 6.5, 37° C. one night
# Source text: as §3, §4, §2, §5
# [7] = system: Pseudomonas aeruginosa IFO 12689; experiment: as above; details: agar medium pH 6.5, 37° C. one night
# Source text: as §3, §4, §2, §5
# [8] = system: Bacillus subtillis IFO 3009; experiment: as above; details: agar medium pH 6.5, 37° C. one night
# Source text: as §3, §4, §2, §5
# [9] = system: Pseudomonas aeruginosa IFO 12689; experiment: as above; details: agar medium pH 7.0, 37° C. one night; BHA 0.5%, BHT 0.5%, 1,5-D-anhydrofructose 1%
# [10] = system: Escherichia coli IFO 3301; experiment: as above
# Protocol: as §3, §1, §2, §5
# [11] = system: Proteus vulgaris IFO 3851; experiment: as above
# Protocol: as §3, §1, §2, §5
# [12] = system: Lactobacillus casei ATCC 393; experiment: as above
# Protocol: as §3, §1, §2, §5
# [13] = system: Bacillus cereus IFO 3131; experiment: as above
# Protocol: as §3, §1, §2, §5
# [14] = 1,5-D-anhydrofructose 1%, sodium citrate 0.5%, sodium polyphosphate 0.2%, sodium malate 0.5%, sodium gluconate 0.5%, sodium tartrate 0.5%, sodium ascorbate 1%, sodium erythorbate 0.2%
# [15] = sodium ascorbate 1%, 1,5-D-anhydrofructose 1%
# [16] = sodium erythorbate 0.2%, 1,5-D-anhydrofructose 1%
# [17] = agar medium pH 6.5, 37° C. one night, 1,5-D-anhydrofructose 1%, sodium citrate 0.5%, sodium polyphosphate 0.2%, sodium malate 0.5%, sodium gluconate 0.5%, sodium tartrate 0.5%, sodium ascorbate 1%, sodium erythorbate 0.2%
# [18] = agar medium pH 6.5, 37° C. one night, sodium ascorbate 1%, 1,5-D-anhydrofructose 1%
# [19] = agar medium pH 6.5, 37° C. one night, sodium erythorbate 0.2%, 1,5-D-anhydrofructose 1%
# [20] = agar medium pH 7.0, 37° C. one night, BHA 0.5%, BHT 0.5%, 1,5-D-anhydrofructose 1%
smiles,measurement,setting,value
"O=C1CO[C@H](CO)[C@@H](O)[C@@H]1O [1,5-D-anhydrofructose]",condition of the colonies,[1],+
same,condition of the colonies,[2],±
same,minimum growth inhibitory concentration,[3],1.0 to 3.0%
same,condition of the colonies,[4],+
same,condition of the colonies,[5]; [14],+
same,condition of the colonies,[5]; [15],+
same,condition of the colonies,[5]; [16],+
same,condition of the colonies,[6]; [14],±
same,condition of the colonies,[6]; [15],±
same,condition of the colonies,[6]; [16],±
same,condition of the colonies,[7]; [14],+
same,condition of the colonies,[7]; [15],+
same,condition of the colonies,[7]; [16],+
same,condition of the colonies,[8]; [14],+
same,condition of the colonies,[8]; [15],+
same,condition of the colonies,[8]; [16],+
same,condition of the colonies,[9],+
same,condition of the colonies,[10]; [17],+
same,condition of the colonies,[10]; [18],+
same,condition of the colonies,[10]; [19],+
same,condition of the colonies,[10]; [20],+
same,condition of the colonies,[11]; [17],±
same,condition of the colonies,[11]; [18],±
same,condition of the colonies,[11]; [19],±
same,condition of the colonies,[11]; [20],±
same,condition of the colonies,[12]; [17],±
same,condition of the colonies,[12]; [18],±
same,condition of the colonies,[12]; [19],±
same,condition of the colonies,[12]; [20],±
same,condition of the colonies,[13]; [17],±
same,condition of the colonies,[13]; [18],±
same,condition of the colonies,[13]; [19],±
same,condition of the colonies,[13]; [20],±
